Data: the NIST ThermoML archive (doi:10.1016/j.jct.2014.03.014)
Several values for one entry are separate records, joined by “and”; a condition that tells them apart may be missing. Identical values can stand only once. ± gives the expanded uncertainty stated by the source.

Conditions: Liquid, Closed cell (Static) method

CC(C)C [2-methylpropane]
Conditions	vapor or sublimation pressure [kPa]
293.15 K	302.2 ± 1.3
293.58 K	306.7 ± 1.1
295.58 K	325.6 ± 1.1
297.58 K	345.2 ± 1.1
299.59 K	365.9 ± 1.1
301.61 K	387.6 ± 1.2
303.15 K	404.7 ± 1.5
303.62 K	410.2 ± 1.2
305.63 K	433.9 ± 1.2
307.64 K	458.6 ± 1.2
309.65 K	484.2 ± 1.2
311.66 K	510.9 ± 1.2
313.15 K	531.6 ± 1.8
313.69 K	538.7 ± 1.3
315.7 K	567.9 ± 1.3
317.73 K	598.1 ± 1.3
319.72 K	629 ± 1.4
321.75 K	661.7 ± 1.4
323.15 K	685.6 ± 2.2
323.82 K	696.1 ± 1.4
325.77 K	730.9 ± 1.5
327.73 K	765.3 ± 1.5
329.74 K	802.7 ± 1.5
331.72 K	840.8 ± 1.6
333.71 K	880.5 ± 1.6
335.74 K	922.5 ± 1.7
337.79 K	966.2 ± 1.7
339.85 K	1011.5 ± 1.8
341.75 K	1054.5 ± 1.8
343.78 K	1102.5 ± 1.9
343.88 K	1105.1 ± 3.5
345.86 K	1153.1 ± 1.9
347.86 K	1204.4 ± 2
349.9 K	1256.3 ± 2.1
351.91 K	1309.8 ± 2.1
353.91 K	1365.1 ± 2.2

FC(F)CC(F)(F)F [1,1,1,3,3-pentafluoropropane]
Conditions	vapor or sublimation pressure
293.15 K	122.7 ± 1.1 kPa
295.08 K	132.2 ± 1 kPa
295.57 K	134.7 ± 1 kPa
296.57 K	139.9 ± 1 kPa
297.57 K	145.2 ± 1 kPa
298.57 K	150.6 ± 1 kPa and 150.7 ± 1 kPa
298.58 K	150.7 ± 1 kPa
299.61 K	156.5 ± 1 kPa
300.61 K	162.4 ± 1 kPa
301.62 K	168.4 ± 1 kPa
302.63 K	174.6 ± 1 kPa
303.15 K	177.9 ± 1.2 kPa
303.64 K	181 ± 1.1 kPa
304.64 K	187.6 ± 1.1 kPa
305.65 K	194.3 ± 1.1 kPa
306.66 K	201.2 ± 1.1 kPa
307.67 K	208.3 ± 1.1 kPa
308.68 K	215.7 ± 1.1 kPa
309.7 K	223.3 ± 1.1 kPa
310.72 K	231.1 ± 1.1 kPa
311.74 K	239.1 ± 1.1 kPa
313.15 K	250.3 ± 1.3 kPa
313.71 K	255.2 ± 1.1 kPa
315.74 K	272.6 ± 1.1 kPa
317.76 K	290.8 ± 1.1 kPa
318.78 K	300.3 ± 1.1 kPa
319.77 K	309.9 ± 1.1 kPa
321.71 K	329.1 ± 1.2 kPa
323.15 K	344 ± 1.6 kPa
323.73 K	349.9 ± 1.2 kPa
325.71 K	371.6 ± 1.2 kPa
327.68 K	394 ± 1.2 kPa
329.67 K	417.9 ± 1.2 kPa
330.68 K	430.4 ± 1.3 kPa
331.7 K	443.4 ± 1.3 kPa
333.71 K	469.6 ± 1.3 kPa
335.73 K	497.1 ± 1.3 kPa
337.74 K	525.9 ± 1.4 kPa
338.75 K	540.8 ± 1.4 kPa
339.77 K	556.1 ± 1.4 kPa
341.82 K	587.9 ± 1.4 kPa
343.82 K	620.4 ± 1.5 kPa
343.88 K	621 ± 2.4 kPa
345.87 K	654.6 ± 1.5 kPa
347.86 K	689.5 ± 1.6 kPa
348.87 K	707.6 ± 1.6 kPa and 707.7 ± 1.6 kPa
349.86 K	725.9 ± 1.6 kPa
350.86 K	744.6 ± 1.6 kPa
351.87 K	763.8 ± 1.7 kPa
352.87 K	783.3 ± 1.7 kPa
